US6696439B1, “5-HT1F agonists” (Eli Lilly and Company, priority 1999, dated 2004)

| melting point | Compound |
| --- | --- |
| 136 to 138 °C | Cc1oc2ccc(NC(=O)c3ccc(F)cc3)nc2c1CCN(C)C.O=C(O)C(=O)O |
| 211 to 212 °C | Cc1oc2ccc(NC(=O)c3cccs3)nc2c1CCN(C)C.O=C(O)C(=O)O |
| 153 to 155 °C | CCC(=O)Nc1ccc2occ(CCN(C)C)c2n1.O=C(O)C(=O)O |
| 65 to 66 °C | CN(C)CCc1coc2ccc(NC(=O)c3ccccc3)nc12.O=C(O)C(=O)O |
| 124 to 126 °C | CN(C)CCc1coc2ccc(NC(=O)c3ccc(F)cc3)nc12.O=C(O)C(=O)O |
| 68 to 69 °C | CN(C)CCc1coc2ccc(NC(=O)c3cccs3)nc12.O=C(O)C(=O)O |
| 168 to 170 °C | CCC(=O)Nc1ccc2oc(C)c(CCN(C)C)c2n1.O=C(O)C(=O)O |
| 119 to 120 °C | Cc1oc2ccc(NC(=O)c3ccccc3)nc2c1CCN(C)C |
